# Experimental data as given in patent publication US20230339900A1, “CASEIN KINASE 1 DELTA MODULATORS” (Janssen Pharmaceutica NV, priority 2020, published 2023).
# Read-outs that look alike come from different tables or passages of the source.
# Tests used:
# [1] = molecular target: human CSNK1D tagged with nanoluciferase (Homo sapiens (Human), UniProt P48730); assay: Whole Cell nBRET CSNK1D Binding Assay; details: living CHO cells stably expressing human CSNK1D-nanoluciferase; NanoBret tracer 130 nM; 2 hours 37° C.; read-out: CSNK1D BRET IC50
# human CSNK1D tagged with nanoluciferase, sequence (P48730 whole entry): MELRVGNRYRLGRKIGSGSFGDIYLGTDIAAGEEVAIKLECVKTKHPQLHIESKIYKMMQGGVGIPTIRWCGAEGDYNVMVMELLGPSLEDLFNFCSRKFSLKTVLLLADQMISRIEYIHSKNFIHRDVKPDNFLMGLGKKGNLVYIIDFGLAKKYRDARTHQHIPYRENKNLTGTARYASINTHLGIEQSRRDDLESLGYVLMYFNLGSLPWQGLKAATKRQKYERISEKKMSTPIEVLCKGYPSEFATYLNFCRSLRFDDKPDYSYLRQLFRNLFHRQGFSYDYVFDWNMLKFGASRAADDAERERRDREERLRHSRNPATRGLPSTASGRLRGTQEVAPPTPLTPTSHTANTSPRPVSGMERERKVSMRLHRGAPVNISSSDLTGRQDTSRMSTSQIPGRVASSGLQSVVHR
# Procedure, shortened: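 Live CHO cells stably expressing nanoluciferase-tagged CSNK1D, seeded in serum-free OptiMEM, received compound dose-response plus NanoBRET tracer (130 nM) for 2 h at 37 °C.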
# [2] = molecular target: human recombinant GST cleaved CSNK1D (Homo sapiens (Human), UniProt P48730); assay: Purified enzyme assay (ADP-Glo Kinase Assay); assay type: biochemical; details: 2 nM CSNK1D, peptide substrate 150 μM, ATP 20 μM, 45 minutes room temperature
# human recombinant GST cleaved CSNK1D, sequence (P48730 whole entry): as above
# [3] = conditioned place preference with cocaine and alcohol reinstatement; cited from earlier work
# [4] = system: circadian rhythms; details: in vivo locomotor activity of a variety of species; cited from earlier work
# [5] = system: circadian rhythms; details: cellular reporter assays; cited from earlier work
# [6] = ob/ob and diet-induced obese mouse, daily administration; cited from earlier work
SMILES,IC50 [1] [nM],AC50 [2] [nM],also measured
"Cn1cc(-c2ccnc3cccnc23)c(-c2ccc(F)cn2)n1 [Example 126, 4-[3-(5-Fluoro-2-pyridyl)-1-methyl-pyrazol-4-yl]-1,5-naphthyridine]",4620,26,–
"Cn1cc(-c2ccnc3ccc(F)nc23)c(-c2ccc(F)cn2)n1 [Example 127, 2-Fluoro-8-[3-(5-fluoro-2-pyridyl)-1-methyl-pyrazol-4-yl]-1,5-naphthyridine]",962,46,–
"CCOc1ccc2nccc(-c3cn(C)nc3-c3ccc(F)cn3)c2n1 [Example 128, 2-Ethoxy-8-[3-(5-fluoro-2-pyridyl)-1-methyl-pyrazol-4-yl]-1,5-naphthyridine]",103,11,–
"COc1ccc2nccc(-c3cn(C)nc3-c3ccc(F)cn3)c2c1 [Example 129, 4-[3-(5-Fluoro-2-pyridyl)-1-methyl-pyrazol-4-yl]-6-methoxy-quinoline]",785,109,–
"Cc1ccc2nccc(-c3cn(C)nc3-c3ccc(F)cn3)c2n1 [Example 131, 8-[3-(5-Fluoro-2-pyridyl)-1-methyl-pyrazol-4-yl]-2-methyl-1,5-naphthyridine]",4480,310,–
"Cc1csc2c(-c3cn(C)nc3-c3ccc(F)cn3)ccnc12 [Example 132, 7-[3-(5-Fluoro-2-pyridyl)-1-methyl-pyrazol-4-yl]-3-methyl-thieno[3,2-b]pyridine]",5170,361,–
"Cc1ccnc2c(-c3cn(C)nc3-c3ccc(F)cn3)ccnc12 [Example 133, 4-[3-(5-Fluoro-2-pyridyl)-1-methyl-pyrazol-4-yl]-8-methyl-1,5-naphthyridine]",> 10000,7030,–
"Cc1cc(-c2cn(C3CC3)nc2-c2ccc(F)cn2)c2cn[nH]c2n1 [Example 134, 4-[1-Cyclopropyl-3-(5-fluoro-2-pyridyl)pyrazol-4-yl]-6-methyl-1H-pyrazolo[3,4-b]pyridine]",329,30,–
"Cc1cc(-c2nn(C)cc2-c2cc(C)nc3[nH]ncc23)ccn1 [Example 135, 6-Methyl-4-[1-methyl-3-(2-methyl-4-pyridyl)pyrazol-4-yl]-1H-pyrazolo[3,4-b]pyridine]",7120,168,–
"Cc1cc(-c2cn(C)nc2-c2ccncc2C)c2cn[nH]c2n1 [Example 136, 6-Methyl-4-[1-methyl-3-(3-methyl-4-pyridyl)pyrazol-4-yl]-1H-pyrazolo[3,4-b]pyridine]",> 10000,1040,–
"Cc1cncc(-c2nn(C)cc2-c2cc(C)nc3[nH]ncc23)c1 [Example 137, 6-Methyl-4-[1-methyl-3-(5-methyl-3-pyridyl)pyrazol-4-yl]-1H-pyrazolo[3,4-b]pyridine]",890,38,–
"Cc1cc(-c2cn(C)nc2-c2ccncc2Cl)c2cn[nH]c2n1 [Example 138, 4-[3-(3-Chloro-4-pyridyl)-1-methyl-pyrazol-4-yl]-6-methyl-1H-pyrazolo[3,4-b]pyridine]",8620,217,–
"Cc1cc(-c2cn(C)nc2-c2cncc(Cl)c2)c2cn[nH]c2n1 [Example 139, 4-[3-(5-Chloro-3-pyridyl)-1-methyl-pyrazol-4-yl]-6-methyl-1H-pyrazolo[3,4-b]pyridine]",506,18,–
"Cc1cc(-c2cn(C)nc2-c2c(C)cncc2F)c2cn[nH]c2n1 [Example 140, 4-[3-(3-Fluoro-5-methyl-4-pyridyl)-1-methyl-pyrazol-4-yl]-6-methyl-1H-pyrazolo[3,4-b]pyridine]",> 10000,1170,–
"COc1ncc(-c2nn(C)cc2-c2cc(C)nc3[nH]ncc23)cc1C [Example 141, 4-[3-(6-Methoxy-5-methyl-3-pyridyl)-1-methyl-pyrazol-4-yl]-6-methyl-1H-pyrazolo[3,4-b]pyridine]",2020,44,–
"COc1ncc(-c2nn(C)cc2-c2cc(C)nc3[nH]ncc23)cc1Cl [Example 142, 4-[3-(5-Chloro-6-methoxy-3-pyridyl)-1-methyl-pyrazol-4-yl]-6-methyl-1H-pyrazolo[3,4-b]pyridine]",382,28,–

SMILES,IC50 [1] [nM],AC50 [2] [nM],also measured
"Cc1cc(-c2nn(C)cc2-c2cc(C)nc3[nH]ncc23)cnn1 [Example 143, 6-Methyl-4-[1-methyl-3-(6-methylpyridazin-4-yl)pyrazol-4-yl]-1H-pyrazolo[3,4-b]pyridine]",> 10000,1540,–
"Cn1cc(-c2ccnc3c2ccn3C)c(-c2ccc(F)cn2)n1 [Example 144, 4-[3-(5-Fluoro-2-pyridyl)-1-methyl-pyrazol-4-yl]-1-methyl-pyrrolo[2,3-b]pyridine]",1720,77,–
"Cn1cc(-c2ccnc3sccc23)c(-c2ccc(F)cn2)n1 [Example 145, 4-[3-(5-Fluoro-2-pyridyl)-1-methyl-pyrazol-4-yl]thieno[2,3-b]pyridine]",778,40,–
"Cn1cc(-c2cc(C(F)F)nc3[nH]ncc23)c(-c2cncc(F)c2)n1 [Example 146, 6-(Difluoromethyl)-4-[3-(5-fluoro-3-pyridyl)-1-methyl-pyrazol-4-yl]-1H-pyrazolo[3,4-b]pyridine]",6570,171,–
"Cn1cc(-c2ccnc3c(F)cccc23)c(-c2ccc(F)cn2)n1 [Example 147, 8-Fluoro-4-[3-(5-fluoro-2-pyridyl)-1-methyl-pyrazol-4-yl]quinoline]",> 10000,1100,–
"COc1cccc2c(-c3cn(C)nc3-c3ccc(F)cn3)ccnc12 [Example 148, 4-[3-(5-Fluoro-2-pyridyl)-1-methyl-pyrazol-4-yl]-8-methoxy-quinoline]",> 10000,7090,–
"Cn1cc(-c2ccnc3cc(C#N)ccc23)c(-c2ccc(F)cn2)n1 [Example 149, 4-[3-(5-Fluoro-2-pyridyl)-1-methyl-pyrazol-4-yl]quinoline-7-carbonitrile]",> 10000,124,–
"Cn1cc(-c2ccnc3ccc(C#N)cc23)c(-c2ccc(F)cn2)n1 [Example 150, 4-[3-(5-Fluoro-2-pyridyl)-1-methyl-pyrazol-4-yl]quinoline-6-carbonitrile]",1820,113,–
"COc1cc(OC)c2c(-c3cn(C)nc3-c3ccc(F)cn3)ccnc2c1 [Example 151, 4-[3-(5-Fluoro-2-pyridyl)-1-methyl-pyrazol-4-yl]-5,7-dimethoxy-quinoline]",453,38,–
"Cn1cc(-c2ccnc3cc(F)cnc23)c(-c2ccc(F)cn2)n1 [Example 152, 3-Fluoro-8-[3-(5-fluoro-2-pyridyl)-1-methyl-pyrazol-4-yl]-1,5-naphthyridine]",578,73,–
"Cn1cc(-c2ccnc3cc(Br)cnc23)c(-c2ccc(F)cn2)n1 [Example 153, 3-Bromo-8-[3-(5-fluoro-2-pyridyl)-1-methyl-pyrazol-4-yl]-1,5-naphthyridine]",579,39,–
"COc1cc2nccc(-c3cn(C)nc3-c3ccc(F)cn3)c2cn1 [Example 154, 4-[3-(5-Fluoro-2-pyridyl)-1-methyl-pyrazol-4-yl]-7-methoxy-1,6-naphthyridine]",522,25,–
"COc1cnc2c(-c3cn(C)nc3-c3ccc(F)cn3)ccnc2c1 [Example 155, 8-[3-(5-Fluoro-2-pyridyl)-1-methyl-pyrazol-4-yl]-3-methoxy-1,5-naphthyridine]",318,22,–
"COc1ccc2ncc(F)c(-c3cn(C)nc3-c3ccc(F)cn3)c2n1 [Example 156, 7-Fluoro-8-[3-(5-fluoro-2-pyridyl)-1-methyl-pyrazol-4-yl]-2-methoxy-1,5-naphthyridine]",803,52,–
Nc1nccc(-c2c(-c3ccc(F)cc3)ncn2C2CCCCC2)n1 [PF-670462],–,–,efficacy in addiction/substance abuse models [3]: have shown efficacy; effect on circadian rhythms [4]: significantly lengthened circadian rhythms; effect on circadian rhythms [5]: significantly lengthened circadian rhythms
Nc1nccc(-c2c(-c3ccc(F)cc3)ncn2C2CCN(Cc3ccon3)CC2)n1 [PF-5006739],–,–,effect on circadian rhythms [4]: significantly lengthened circadian rhythms; effect on circadian rhythms [5]: significantly lengthened circadian rhythms; effect on glucose tolerance [6]: improve glucose tolerance
